Measured values: ChEMBL document CHEMBL2010638, “Synthesis and evaluation of disulfide bond mimetics of amylin-(1-8) as agents to treat osteoporosis” (Bioorg Med Chem, 2012)
Activity calls are given as the source filed them. The rule behind the calls is not given here. *1 amine or outer side, *2 acyl side, *3 side chain or, on linkers, in order; H or OH if unused. Where a SMILES comes first, the peptide text is derived from it. Bridges are numbered along the chain shown (N, C = ends). Triazole bridges read from a SMILES are 1,4-linked. [ ]: non-standard residue; d: D form. Dap(N3) = [N-]=[N+]=NC[C@H](N)C(=O)O; oXylylene = c1ccc(C[*:2])c(C[*:1])c1; pXylylene = c1cc(C[*:2])ccc1C[*:1]; Pra = C#CC[C@H](N)C(=O)O; CH2CH2 = C(C[*:2])[*:1]; X2 = O=C(CC[*:2])[*:1]; X1 = C(C[*:1])C[*:2]

What follows are compounds tested on Calvarial osteoblast (assay: Induction of osteoblast differentiation in rat fetal calvarial osteoblast assessed as [3H]thymidine incorporation at 10^-8 to 10^-10 after 6 hrs).
Type: functional, cell-based

SMILES	Activity
C[C@H](NC(=O)[C@@H]1CSCc2ccc(cc2)CSC[C@H](NC(=O)[C@@H](N)CCCCN)C(=O)N[C@@H](CC(N)=O)C(=O)N[C@@H]([C@@H](C)O)C(=O)N[C@@H](C)C(=O)N[C@@H]([C@@H](C)O)C(=O)N1)C(N)=O (H-KCNTATCA-NH2; linker 2-7 via pXylylene)	Active
C[C@H](NC(=O)[C@@H]1CSCc2ccccc2CSC[C@H](NC(=O)[C@@H](N)CCCCN)C(=O)N[C@@H](CC(N)=O)C(=O)N[C@@H]([C@@H](C)O)C(=O)N[C@@H](C)C(=O)N[C@@H]([C@@H](C)O)C(=O)N1)C(N)=O (H-KCNTATCA-NH2; linker 2-7 via oXylylene)	inactive
C[C@H](NC(=O)[C@@H]1CSCCSC[C@H](NC(=O)[C@@H](N)CCCCN)C(=O)N[C@@H](CC(N)=O)C(=O)N[C@@H]([C@@H](C)O)C(=O)N[C@@H](C)C(=O)N[C@@H]([C@@H](C)O)C(=O)N1)C(N)=O (H-KCNTATCA-NH2; linker 2-7 via CH2CH2)	inactive
C[C@H](NC(=O)[C@@H]1CSCCCSC[C@H](NC(=O)[C@@H](N)CCCCN)C(=O)N[C@@H](CC(N)=O)C(=O)N[C@@H]([C@@H](C)O)C(=O)N[C@@H](C)C(=O)N[C@@H]([C@@H](C)O)C(=O)N1)C(N)=O (H-KCNTATCA-NH2; linker 2-7 via X1)	inactive
C[C@H](NC(=O)[C@@H]1CSCCC(=O)NCCCC[C@H](NC(=O)[C@@H](N)CCCCN)C(=O)N[C@@H](CC(N)=O)C(=O)N[C@@H]([C@@H](C)O)C(=O)N[C@@H](C)C(=O)N[C@@H]([C@@H](C)O)C(=O)N1)C(N)=O (H-KKNTATCA-NH2; linker 2-7 via X2)	inactive
C[C@H](NC(=O)[C@@H]1Cn2cc(nn2)C[C@H](NC(=O)[C@@H](N)CCCCN)C(=O)N[C@@H](CC(N)=O)C(=O)N[C@@H]([C@@H](C)O)C(=O)N[C@@H](C)C(=O)N[C@@H]([C@@H](C)O)C(=O)N1)C(N)=O (H-K[Pra]NTAT[Dap(N3)]A-NH2; triazole 2-7)	inactive
C[C@H](NC(=O)[C@@H]1CSSC[C@H](NC(=O)[C@@H](N)CCCCN)C(=O)N[C@@H](CC(N)=O)C(=O)N[C@@H]([C@@H](C)O)C(=O)N[C@@H](C)C(=O)N[C@@H]([C@@H](C)O)C(=O)N1)C(N)=O (H-KCNTATCA-NH2; disulfide 2-7)	Active
